Laboratory results from ChEMBL document CHEMBL1909046, “DrugMatrix in vitro pharmacology data”.

Assays:
Cytochrome P450 3A4 = Cytochrome P450 3A4 (Homo sapiens, UniProt P08684); settings: bti-tn-5b1-4; further: in other assays of this panel Not Active means under 50% inhibition at 10 µM
Thromboxane-A synthase = target: T1, Thromboxane-A synthase (Homo sapiens, UniProt P24557); test: biochemical; type: tissue-based, Platelet; settings: platelet;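 further: enzyme inhibition assay with PGH2 supplied as substrate; in other assays of this panel Not Active means under 50% inhibition at 10 µM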
T1 sequence (P24557 whole entry): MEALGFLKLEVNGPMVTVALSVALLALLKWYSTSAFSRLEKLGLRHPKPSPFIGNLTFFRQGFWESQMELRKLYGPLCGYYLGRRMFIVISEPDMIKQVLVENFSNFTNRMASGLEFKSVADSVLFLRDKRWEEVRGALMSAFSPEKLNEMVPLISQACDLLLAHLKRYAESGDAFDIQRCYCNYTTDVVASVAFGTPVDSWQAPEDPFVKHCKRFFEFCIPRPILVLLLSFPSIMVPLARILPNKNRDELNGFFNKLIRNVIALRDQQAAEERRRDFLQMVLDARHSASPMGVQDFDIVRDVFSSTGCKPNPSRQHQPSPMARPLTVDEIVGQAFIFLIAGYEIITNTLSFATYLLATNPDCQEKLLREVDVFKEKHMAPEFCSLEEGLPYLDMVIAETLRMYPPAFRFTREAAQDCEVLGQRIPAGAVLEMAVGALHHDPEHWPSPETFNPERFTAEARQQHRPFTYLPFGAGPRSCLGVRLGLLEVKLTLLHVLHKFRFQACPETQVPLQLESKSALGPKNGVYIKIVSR

[1] = target: T2, C-X-C chemokine receptor type 1 (Homo sapiens, UniProt P25024); further: in other assays of this panel Not Active means under 50% inhibition at 10 µM
T2 sequence (P25024 whole entry): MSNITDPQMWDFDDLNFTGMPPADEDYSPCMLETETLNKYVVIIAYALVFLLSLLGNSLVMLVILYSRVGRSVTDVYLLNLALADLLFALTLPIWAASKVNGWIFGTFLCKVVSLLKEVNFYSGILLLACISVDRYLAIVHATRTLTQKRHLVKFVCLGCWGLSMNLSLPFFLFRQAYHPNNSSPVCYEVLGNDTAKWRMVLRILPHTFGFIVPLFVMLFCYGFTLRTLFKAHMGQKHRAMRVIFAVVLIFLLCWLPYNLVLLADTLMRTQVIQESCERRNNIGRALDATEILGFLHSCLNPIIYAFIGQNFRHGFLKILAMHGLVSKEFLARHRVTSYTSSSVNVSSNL

Mu-type opioid receptor = Mu-type opioid receptor (Homo sapiens, UniProt P35372); test: DRUGMATRIX: Opiate mu (OP3, MOP) radioligand binding (ligand: [3H] Diprenorphine); type: cell membranes, CHO-K1, Membrane; settings: cho-k1; Not Active = under 50% inhibition at 10 µM
[2] = DRUGMATRIX: beta-Lactamase enzyme inhibition (substrate: Nitrocefin); design: species or system Bacillus cereus; settings: Not Active = under 50% inhibition at 10 µM
[3] = target: 5-hydroxytryptamine receptor 2B (Homo sapiens, UniProt P41595); type: cell membranes, CHO-K1, Membrane; settings: for Ki: read-out: Ki; on all read-outs here: in other assays of this panel Not Active means under 50% inhibition at 10 µM
[4] = target: Mitogen-activated protein kinase 1 (Homo sapiens, UniProt P28482); test: DRUGMATRIX: Protein Serine/Threonine Kinase, ERK2 enzyme inhibition (substrate: Myelin Basic Protein); design: species or system Escherichia coli; settings: Not Active = under 50% inhibition at 10 µM
Mitogen-activated protein kinase 1, sequence (P28482 whole entry): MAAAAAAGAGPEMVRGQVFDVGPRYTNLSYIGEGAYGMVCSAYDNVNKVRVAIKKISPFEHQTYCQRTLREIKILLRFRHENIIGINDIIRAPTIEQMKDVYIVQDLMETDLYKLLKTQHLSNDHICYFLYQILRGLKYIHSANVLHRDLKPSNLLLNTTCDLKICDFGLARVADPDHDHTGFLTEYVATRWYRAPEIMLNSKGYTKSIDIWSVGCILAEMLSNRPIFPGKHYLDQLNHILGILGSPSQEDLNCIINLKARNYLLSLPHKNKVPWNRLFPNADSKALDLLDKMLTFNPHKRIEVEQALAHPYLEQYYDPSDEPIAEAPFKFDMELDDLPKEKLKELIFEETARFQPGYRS

Mu-type opioid receptor, sequence (P35372 whole entry): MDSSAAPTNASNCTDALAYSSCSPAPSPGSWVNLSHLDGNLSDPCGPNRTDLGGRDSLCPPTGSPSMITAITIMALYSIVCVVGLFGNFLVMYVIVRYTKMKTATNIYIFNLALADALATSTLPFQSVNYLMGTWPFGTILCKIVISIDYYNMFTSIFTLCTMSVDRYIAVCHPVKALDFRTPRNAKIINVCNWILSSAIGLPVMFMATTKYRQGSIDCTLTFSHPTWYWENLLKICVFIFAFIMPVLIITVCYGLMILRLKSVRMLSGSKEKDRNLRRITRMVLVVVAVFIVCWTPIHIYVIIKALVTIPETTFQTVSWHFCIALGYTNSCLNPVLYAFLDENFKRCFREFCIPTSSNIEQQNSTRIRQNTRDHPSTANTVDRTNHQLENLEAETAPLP
5-hydroxytryptamine receptor 2B, sequence (P41595 whole entry): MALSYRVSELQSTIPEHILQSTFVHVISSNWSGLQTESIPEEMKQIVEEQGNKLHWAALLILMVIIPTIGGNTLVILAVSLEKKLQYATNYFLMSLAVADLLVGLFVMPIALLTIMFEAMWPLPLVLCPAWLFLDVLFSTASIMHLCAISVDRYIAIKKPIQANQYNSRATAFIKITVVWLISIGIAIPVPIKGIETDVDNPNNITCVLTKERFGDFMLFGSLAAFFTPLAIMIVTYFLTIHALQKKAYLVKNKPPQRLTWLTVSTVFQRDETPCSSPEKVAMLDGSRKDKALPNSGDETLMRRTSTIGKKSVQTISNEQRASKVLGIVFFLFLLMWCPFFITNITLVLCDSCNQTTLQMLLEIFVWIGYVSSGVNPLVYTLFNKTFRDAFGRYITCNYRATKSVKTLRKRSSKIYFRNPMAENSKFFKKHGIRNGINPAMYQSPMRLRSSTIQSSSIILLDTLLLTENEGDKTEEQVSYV
Cytochrome P450 3A4, sequence (P08684 whole entry): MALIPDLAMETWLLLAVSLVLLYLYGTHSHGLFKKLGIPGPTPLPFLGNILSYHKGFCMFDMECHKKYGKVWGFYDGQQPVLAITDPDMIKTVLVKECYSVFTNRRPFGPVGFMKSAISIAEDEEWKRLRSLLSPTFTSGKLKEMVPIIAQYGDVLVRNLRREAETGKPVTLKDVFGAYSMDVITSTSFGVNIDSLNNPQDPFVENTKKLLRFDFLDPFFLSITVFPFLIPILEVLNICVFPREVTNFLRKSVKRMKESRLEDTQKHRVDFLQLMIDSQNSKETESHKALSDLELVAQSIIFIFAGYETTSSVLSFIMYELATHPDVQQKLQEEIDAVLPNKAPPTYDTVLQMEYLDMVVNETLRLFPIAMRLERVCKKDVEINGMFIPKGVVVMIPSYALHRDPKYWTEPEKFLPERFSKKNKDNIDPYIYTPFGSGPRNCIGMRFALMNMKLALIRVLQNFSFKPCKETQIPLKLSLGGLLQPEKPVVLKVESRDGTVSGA

SMILES	IC50 (Cytochrome P450 3A4)	Ki (Cytochrome P450 3A4)	IC50 (Thromboxane-A synthase)	IC50 [1]	IC50 (Mu-type opioid receptor)	IC50 [2]	Ki [2]	IC50 ([3]; cho-k1)	IC50 [4]	IC50 ([3]; read-out: IC50) [nM]	Ki [3] [nM]
CC[C@H](C)[C@H]1O[C@]2(C=C[C@@H]1C)C[C@@H]1C[C@@H](C/C=C(\C)[C@@H](O[C@H]3C[C@H](OC)[C@@H](O[C@H]4C[C@H](OC)[C@@H](O)[C@H](C)O4)[C@H](C)O3)[C@@H](C)/C=C/C=C3\CO[C@@H]4[C@H](O)C(C)=C[C@@H](C(=O)O1)[C@]34O)O2.CO[C@H]1C[C@H](O[C@H]2[C@H](C)O[C@@H](O[C@@H]3/C(C)=C/C[C@@H]4C[C@@H](C[C@]5(C=C[C@H](C)[C@@H](C(C)C)O5)O4)OC(=O)[C@@H]4C=C(C)[C@@H](O)[C@H]5OC/C(=C\C=C\[C@@H]3C)[C@]54O)C[C@@H]2OC)O[C@@H](C)[C@@H]1O [ABAMECTIN]	Not Active	Not Active	Not Active	Not Active	Not Active	Not Active	Not Active	Not Active	Not Active		
Cn1c(=O)c2[nH]cnc2n(C)c1=O.Cn1c(=O)c2[nH]cnc2n(C)c1=O.NCCN [AMINOPHYLLINE]	Not Active	Not Active	Not Active	Not Active	Not Active	Not Active	Not Active	Not Active	Not Active		
CCC1(CCC(C)C)C(=O)NC(=O)NC1=O [AMOBARBITAL]	Not Active	Not Active	Not Active	Not Active	Not Active	Not Active	Not Active	Not Active	Not Active		
CC1(C)S[C@@H]2[C@H](NC(=O)[C@H](N)c3ccccc3)C(=O)N2[C@H]1C(=O)O [AMPICILLIN]	Not Active	Not Active	Not Active	Not Active	Not Active	Not Active	Not Active	Not Active	Not Active		
COc1ccc(C2C(=O)c3ccccc3C2=O)cc1 [ANISINDIONE]	Not Active	Not Active	Not Active	Not Active	Not Active	Not Active	Not Active	Not Active	Not Active		
O=C1O[C@H]([C@@H](O)CO)C(O)=C1O [ASCORBIC ACID]	Not Active	Not Active	Not Active	Not Active	Not Active	Not Active	Not Active	Not Active	Not Active		
CC(C(=O)O)c1ccc2oc(-c3ccc(Cl)cc3)nc2c1 (stereo not given) [BENOXAPROFEN]	Not Active	Not Active	Not Active	Not Active	Not Active	Not Active	Not Active	Not Active	Not Active		
COc1ccc2cc3[n+](cc2c1OC)CCc1cc2c(cc1-3)OCO2.[Cl-] [BERBERINE CHLORIDE]	Not Active	Not Active	Not Active	Not Active	Not Active	Not Active	Not Active		Not Active	3440	2190
O=C(O)CCNC(=O)c1ccccc1 [BETAMIPRON]	Not Active	Not Active	Not Active	Not Active	Not Active	Not Active	Not Active	Not Active	Not Active		
CC(=O)Oc1ccc(C(c2ccc(OC(C)=O)cc2)c2ccccn2)cc1 [BISACODYL]	Not Active	Not Active	Not Active	Not Active	Not Active	Not Active	Not Active	Not Active	Not Active		
Cc1cc2c(OCC(CNC(C)(C)C)OC(=O)c3ccccc3)cccc2[nH]1 (stereo not given) [BOPINDOLOL]	Not Active	Not Active	Not Active	Not Active	Not Active	Not Active	Not Active		Not Active	1520	969
Brc1c(NC2=NCCN2)ccc2nccnc12 [BRIMONIDINE]	Not Active	Not Active	Not Active	Not Active	Not Active	Not Active	Not Active	Not Active	Not Active		
CN(C)[C@@H]1C(O)=C(C(N)=O)C(=O)[C@@]2(O)C(O)=C3C(=O)c4c(O)ccc(Cl)c4[C@@](C)(O)[C@H]3C[C@@H]12 [CHLORTETRACYCLINE]	Not Active	Not Active	Not Active	Not Active	Not Active	Not Active	Not Active	Not Active	Not Active		
CCC(=O)O[C@]1(C(=O)CCl)[C@@H](C)C[C@H]2[C@@H]3CCC4=CC(=O)C=C[C@]4(C)[C@@]3(F)[C@@H](O)C[C@@]21C [CLOBETASOL PROPIONATE]	Not Active	Not Active	Not Active	Not Active	Not Active	Not Active	Not Active	Not Active	Not Active		
O=C1CN=C(c2ccccc2Cl)c2cc([N+](=O)[O-])ccc2N1 [CLONAZEPAM]	Not Active	Not Active	Not Active	Not Active	Not Active	Not Active	Not Active	Not Active	Not Active		
Nc1ccn([C@@H]2O[C@H](CO)[C@@H](O)[C@@H]2O)c(=O)n1 [CYTARABINE]	Not Active	Not Active	Not Active	Not Active	Not Active	Not Active	Not Active	Not Active	Not Active		
C[C@@H]1C[C@H]2[C@@H]3CCC4=CC(=O)C=C[C@]4(C)[C@@]3(F)[C@@H](O)C[C@]2(C)[C@H]1C(=O)CO [DESOXIMETASONE]	Not Active	Not Active	Not Active	Not Active	Not Active	Not Active	Not Active	Not Active	Not Active		
CN(C)CC[C@@H](c1ccc(Cl)cc1)c1ccccn1 [DEXCHLORPHENIRAMINE]	Not Active	Not Active	Not Active	Not Active	Not Active	Not Active	Not Active	Not Active	Not Active		
C[C@@H]1CC[C@@]2(OC1)O[C@H]1[C@@H](O)[C@H]3[C@@H]4CC[C@H]5C[C@@H](O[C@@H]6O[C@H](CO)[C@H](O[C@@H]7O[C@H](CO)C(O)[C@H](O[C@@H]8OC[C@@H](O)[C@H](O)[C@H]8O)[C@H]7O[C@@H]7O[C@H](CO)[C@H](O)[C@H](O[C@@H]8O[C@H](CO)[C@@H](O)[C@H](O)[C@H]8O)[C@H]7O)[C@H](O)[C@H]6O)[C@H](O)C[C@]5(C)[C@H]4CC[C@]3(C)[C@H]1[C@@H]2C (stereo not given in full) [DIGITONIN]	Not Active	Not Active	Not Active	Not Active	Not Active	Not Active	Not Active	Not Active	Not Active		
OC(CCCN1CCCCC1)(c1ccccc1)c1ccccc1 [DIPHENIDOL]	Not Active	Not Active	Not Active	Not Active	Not Active	Not Active	Not Active	Not Active	Not Active		
C[C@H]1O[C@@H](n2cc(F)c(=O)[nH]c2=O)[C@H](O)[C@@H]1O [DOXIFLURIDINE]	Not Active	Not Active	Not Active	Not Active	Not Active	Not Active	Not Active	Not Active	Not Active		
Cn1c(=O)c2c(ncn2CC(O)CO)n(C)c1=O (stereo not given) [DYPHYLLINE]	Not Active	Not Active	Not Active	Not Active	Not Active	Not Active	Not Active	Not Active	Not Active		
